This note sets out measurements from patent US5466677A, “Dinucleoside phosphinates and their pharmaceutical compositions” (Ciba-Geigy Corporation, priority 1993, dated 1995).

A word on the IC50: it is the concentration needed to halve the response being measured. The low end stands for higher potency, the high end for lower potency.

Data set [1] has as its system human cytomegalovirus (HCMV) (strain AD 169). Nature of the data set: plaque-reduction assay, HCMV in human embryonic fibroblasts. It counts as cell-based. The conditions noted are these: Human betaherpesvirus 5, Fibroblast; HCMV strain AD 169, human embryonic fibroblasts, 7 to 10 days. The protocol: (§1) Compounds prepared in some of the previous Examples are tested for antiviral activity against herpes simplex virus type 1 (HSV-1) (strain 17i) and human cytomegalovirus (HCMV) (strain AD 169) in vitro. Aqueous solutions of the compounds are prepared at concentrations between 10 mM and 50 mM. The solutions are stored at -70° C. after preparation and thawed prior to use in the antiviral assays. After thawing, the solutions are diluted to the appropriate concentration in the cell-culturemedium without prior filtration.
(§2) In a procedure similar to that described by Tyros et al, J. Antimicrob. Chemother., 8, 65-72 (1981), cell monolayers are infected with 20-200 plaque forming units and after virus adsorption the inoculum is replaced by maintenance medium containing different concentrations of the compound under investigation. Virus spread is prevented by the incorporation of 0.5% low gelling temperature agarose. At the end of a set period (2 or 3 days for HSV and 7 to 10 days for HCMV) monolayers are fixed, stained with methylene blue and plaque numbers determined.
On the technique in general: In a plaque reduction assay, fewer plaques than in the control indicate reduced infectivity or spread.

The test system of data set [2] is herpes simplex virus type 1 (HSV-1) (strain 17i). As to the kind of experiment: plaque-reduction assay, HSV-1 in Vero cells. It counts as cell-based. The conditions noted are these: Human alphaherpesvirus 1, 2 or 3 days. The protocol:
as §1, §2

The test system of data set [3] is complementary RNA sequences. The class given is binding. As to conditions: for Tm: pH 7; for ΔTm/mod: pH 7.0.

For the molecule `CCOP(=O)(CC[C@H]1O[C@@H](n2cc(C)c(=O)[nH]c2=O)C[C@@H]1OC(=O)c1ccccc1)C[C@H]1C[C@H](n2cc(C)c(=O)[nH]c2=O)O[C@@H]1CO[Si](c1ccccc1)(c1ccccc1)C(C)(C)C` (stereo partly drawn) [Compound 13], the IC50 lay within 1 to 10 µM in data set [1] and 5 to 50 µM in data set [2].

For `CCOP(=O)(CC[C@H]1O[C@@H](n2cc(C)c(=O)[nH]c2=O)C[C@@H]1O)C[C@H]1C[C@H](n2cc(C)c(=O)[nH]c2=O)O[C@@H]1CO[Si](c1ccccc1)(c1ccccc1)C(C)(C)C` (stereo partly drawn) [Compound 14], the IC50 in data set [1] was greater than 200 µM; in data set [2], 20 to 200 µM.

As to `CCOP(=O)(CC[C@H]1O[C@@H](n2cc(C)c(=O)[nH]c2=O)C[C@@H]1OC(=O)c1ccccc1)C[C@H]1C[C@H](n2cc(C)c(=O)[nH]c2=O)O[C@@H]1CO` (stereo partly drawn) [Compound 15], the figures for the IC50 in data set [1] and in data set [2] were greater than 2 µM and greater than 5 µM, respectively.

Consider “Example 87: TTT T*TC TCT CTC TCT, T*T unit derived from Compound 81 (hydrolysed) (TTTTTCTCTCTCTCT; T*T modified dimer unit from Compound 81 (hydrolysed), chemistry not fully specified)”, for which, in data set [3], the Tm is 45.7 °C and the ΔTm/mod is -2.8 °C.

“Example 88: TTT T*TC TCT CTC TCT, T*T unit derived from Compound 81 (TTTTTCTCTCTCTCT; one T*T dimer with modified linkage from Compound 81, further chemistry not given here)”: in data set [3], the Tm was 46.8 °C and the ΔTm/mod was -2.2 °C.

Regarding “Example 89: TTT T*TC TCT CTC TCT, T*T unit derived from Compound 81A (TTTTTCTCTCTCTCT; one T*T dimer with modified linkage from Compound 81A, further chemistry not given here)”, in data set [3], the Tm was found to be 45.7 °C and the ΔTm/mod was -3.3 °C.

Turning to “Example 90: TTT T*TC TCT CTC TCT, T*T unit derived from Compound 81B (TTTTTCTCTCTCTCT; one T*T dimer with modified linkage from Compound 81B, further chemistry not given here)”, in data set [3], the Tm was found to be 47.2 °C and the ΔTm/mod is -1.3 °C.

In the case of “Example 95: CTC GTA CT*T T*TC CGG TCC, T*T units derived from Compound 81 (hydrolysed) (CTCGTACTTTTCCGGTCC; two T*T dimers with modified linkage from hydrolysed Compound 81, further chemistry not given here)”, in data set [3], the Tm is 58.2 °C and the ΔTm/mod is -1.6 °C.

With “Example 96: CTC GTA CT*T T*TC CGG TCC, T*T units derived from Compound 81 (CTCGTACTTTTCCGGTCC; T*T modified units from Compound 81, chemistry not fully specified)”, in data set [3], the Tm stood at 58.5 °C and the ΔTm/mod is -1.5 °C.

Turning to “Example 97: CTC GTA CT*T T*TC CGG TCC, T*T units derived from Compound 81A (CTCGTACTTTTCCGGTCC; T*T modified units from Compound 81A, chemistry not fully specified)”, in data set [3], the Tm amounted to 57.9 °C and the ΔTm/mod is -1.8 °C.

As for “Example 98: CTC GTA CT*T T*TC CGG TCC, T*T units derived from Compound 81B (CTCGTACTTTTCCGGTCC; T*T modified units from Compound 81B, chemistry not fully specified)”, in data set [3], the Tm came out at 58.8 °C and the ΔTm/mod is -1.3 °C.

Take “Example 99: GCG T*TT *TT*T T*TT *TGC G, T*T indicating a unit derived from Compound 81 (hydrolysed) (GCGTTTTTTTTTTGCG; several T*T modified linkages from hydrolysed Compound 81, further chemistry not given here)”: in data set [3], the Tm was 39.6 °C and the ΔTm/mod was -1.8 °C.
